Tests used:
mAb1 [1] = test: Light stress of mAb1 formulation (eight hours at 250 W/m^2), papain digest RP-HPLC; type: physicochemical, human; conditions: mAb1 5 mg/mL, eight hours of light at 250 W/m^2
Description: L-tryptophan (L-Trp), an antioxidant used in protein formulations, has been recently shown to be photosensitive (Igarashi et al., Anal Sci 23(8):943-8 (2007)) and to have the ability to produce H2O2 upon light exposure. […] Control vials were wrapped in aluminum foil and treated similarly. After light exposure, solutions were prepared for analysis by reverse-phase HPLC. […] Following incubation, 900 μL of the solution was combined with 100 μL of 1 M dithiothreitol (DTT) and incubated for another thirty minutes at 37° C. Samples were then run on an Agilent, Inc. 1100/1200 HPLC system (Santa Clara, Calif.) equipped with UV detection at 280 nm in conjunction with a Varian, Inc. Pursuit 3 μm, 2 mm ID×250 mm diphenyl column (Palo Alto, Calif.). Mobile Phase A was 0.1% TFA in water. Mobile Phase B was 0.1% TFA in acetonitrile. The mobile phase gradient increased linearly from 34% B at 0 minutes to 43% B at 50.0 minutes, then to 95% B at 50.1 minutes. The gradient remained at 95% B until 60.1 minutes, and then decreased linearly from 95% B to 34% B between 60.1 and 60.2 minutes. The gradient remained at 34% B until the end of the cycle at 80.2 minutes. The column temperature was 65° C., total flow rate was 0.2 mL/min, and injection volume of each sample was 6 μL. Chromatograms were then integrated for quantification of oxidation.

mAb1 [2] = test: mAb1 light stress study (16 hours at 250 W/m^2), RP-HPLC; type: physicochemical, human; conditions: 16 hours of light at 250 W/m^2
Description: The fragments were reduced with DTT, and then separated and identified via Liquid Chromatography-Mass Spectrometry (LC-MS). […] Comparison of area integrated under the oxidized and native peaks was used to quantify HC Fab and Fc oxidation. […] By using the papain digest RP-HPLC method in the present study it was possible to investigate Trp residue oxidation by quantifying HC Fab oxidation, and Met residue oxidation by quantifying HC Fc oxidation.
Antioxidants were added at 1 mM. Glass vials containing these formulations were exposed to 250 W/m^2 light in an Atlas SunTest CPS+ Xenon Test Instrument (Chicago, Ill.). Control vials were wrapped in aluminum foil and treated similarly. After light exposure, solutions were prepared for analysis by reverse-phase HPLC as described above.

SMILES: N[C@@H](Cc1c[nH]c2ccccc12)C(=O)O [L-Trp, L-tryptophan]
- Fc oxidation (mAb1 [1]; 1 mM L-Trp, reference material and foil control about 8%): over 20%
- Fab oxidation (mAb1 [1]; no excipient or 1 mM L-Trp, reference material and foil control about 2%): ~9%
- Fc oxidation as multiple of the control level (mAb1 [2]; 1 mM L-Trp): 7 times
- Fab oxidation increase over the control level (mAb1 Ref Mat) (mAb1 [2]; excipient 1 mM or none): over 11 fold
